Data reported in patent US8357673B2, “4-arylazo-3,5-diamino-pyrazole compounds and use thereof” (Univerzita Palackeho V Olomouci, priority 2004, dated 2013).
Where two headings read alike, the source gives them in different places.

Key:
CDK1/cyclin B = molecular target: T1, CDK1/cyclin B (Homo sapiens, UniProt P06493); test: CDK1/cyclin B kinase inhibition assay (histone H1, [γ-33P]ATP); assay type: biochemical; details: averaged from triplicates; 15 μM ATP
T1 construct: made in house; host or cells: Sf9 insect cells (baculovirus co-infection)
Description: (§1) CDK1/cyclin B and CDK2/cyclin E kinases were produced in Sf9 insect cells coinfected with appropriate baculoviral constructs. The cells were harvested 70 h post infection, incubated in lysis buffer (50 mM Tris pH 7.4, 150 mM NaCl, 5 mM EDTA, 20 mM NaF, 1% Tween 20, 1 mM DTT, 0.1 mM PMSF, 0.5 μg/ml leupeptine, 1 μg/ml aprotonine) for 30 min on ice and the soluble fraction was recovered by centrifugation at 20.000 g for 10 min. The enzymes were purified on NiNTA column (Qiagen), stored at 4° C. and used within a week. To carry out the enzyme inhibition assays under linear conditions, the final point test system for kinase activity measurement was used. Kinase was added to reaction mixture in such a way as to obtain linear activity with respect to the concentration of enzyme and with respect to time. For determination of kinase inhibition the reaction mixture contained 1 mg/ml histone H1 (type III-S, Sigma) in the presence of 15 μM ATP, 0.05 μCi [γ-^33P]ATP and the tested compound in a final volume of 10 μl; all in reaction buffer (50 mM HEPES, 10 mM MgCl2, 5 mM EGTA, 10 mM 2-glycerolphosphate, 1 mM NaF, 1 mM DTT, pH 7.4). After 20 min incubation, the reactions were stopped by the addition of 5 μl of a 3% H3PO4, aliquots were spotted on P-81 phosphocellulose (Whatman, USA) that was subsequently washed 3× with 5% H3PO4 and finally air dried. The measurements of kinase inhibition employed digital image analyzer BAS-1800 (Fujifilm, Japan). Kinase activity was usually expressed as a percentage of maximum activity. […] For the purpose of kinetic analysis, the activity was expressed as arbitrary units (AU) of digital image analyzer signal.

CDK2/cyclin E = molecular target: T2, CDK2/cyclin E (Homo sapiens, UniProt P24941); test: CDK2/cyclin E kinase inhibition assay (histone H1, [γ-33P]ATP); assay type: biochemical; details: for IC50: averaged from triplicates, 15 μM ATP
T2 construct: made in house; host or cells: Sf9 insect cells (baculovirus co-infection)
Description: as §1

[1] = system: HOS (human osteogenic sarcoma); test: In vitro cytotoxicity, Calcein AM, 72 h; assay type: cell-based; details: for IC50: read-out: IC50 (μM) HOS
Description: (§2) Tested drugs were added to the cell cultures in six different concentration and kept at 37° C. and 5% CO2 for three days.
(§3) The cells, cultured in DMEM (supplemented with 10% fetal calf serum, 4 mM glutamine, 100 IU/ml penicillin, 100 μg/ml streptomycin) in a humidified CO2 incubator at 37° C., were redistributed into 96-well microtitre plates (10.000 cells per well). After 12 h preincubation, tested compounds in six-fold dilutions were added. Treatment of cells with the tested compounds (in the 1-100 μM range) lasted for 72 h.

[2] = system: K562 (human chronic myeloblastic leukemia); test: In vitro cytotoxicity, Calcein AM, 72 h; assay type: cell-based; details: for IC50: read-out: IC50 (μM) K562
Description: as §2, §3

[3] = system: MCF7 (human breast adenocarcinoma); test: In vitro cytotoxicity, Calcein AM, 72 h; assay type: cell-based; details: for IC50: read-out: IC50 (μM) MCF7
Description: as §2, §3

[4] = system: G 361 (human malignant melanoma); test: In vitro cytotoxicity, Calcein AM, 72 h; assay type: cell-based; details: for IC50: read-out: IC50 (μM) G361
Description: as §2, §3

[5] = In vitro cytotoxicity, Calcein AM, 72 h; assay type: cell-based, human; details: human, at 100 μM
Description: as §2, §3

[6] = G 361 cells (human malignant melanoma), 72 h, read-out: % of viable cells G361
[7] = HOS cells (human osteogenic sarcoma), read-out: % of viable cells HOS
[8] = K562 cells (human chronic myeloblastic leukemia), 72 h, read-out: % of viable cells K562
[9] = MCF7 cells (human breast adenocarcinoma), 72 h, read-out: % of viable cells MCF7
[10] = Homo sapiens, Calcein AM, triplicates
[11] = Homo sapiens, K562, 72 h, Calcein AM, triplicates
[12] = Homo sapiens, MCF7, 72 h, Calcein AM, triplicates
[13] = Homo sapiens, G-361, 72 h, Calcein AM, triplicates

T1 sequence (P06493 whole entry): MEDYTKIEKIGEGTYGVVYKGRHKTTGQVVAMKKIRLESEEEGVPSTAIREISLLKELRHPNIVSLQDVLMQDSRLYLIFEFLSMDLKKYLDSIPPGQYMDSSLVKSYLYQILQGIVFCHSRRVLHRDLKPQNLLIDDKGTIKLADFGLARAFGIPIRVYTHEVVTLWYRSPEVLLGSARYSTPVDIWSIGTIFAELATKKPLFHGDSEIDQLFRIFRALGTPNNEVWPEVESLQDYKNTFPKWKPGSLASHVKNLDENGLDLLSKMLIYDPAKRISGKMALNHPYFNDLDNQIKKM
T1 sequence (P14635 whole entry partner): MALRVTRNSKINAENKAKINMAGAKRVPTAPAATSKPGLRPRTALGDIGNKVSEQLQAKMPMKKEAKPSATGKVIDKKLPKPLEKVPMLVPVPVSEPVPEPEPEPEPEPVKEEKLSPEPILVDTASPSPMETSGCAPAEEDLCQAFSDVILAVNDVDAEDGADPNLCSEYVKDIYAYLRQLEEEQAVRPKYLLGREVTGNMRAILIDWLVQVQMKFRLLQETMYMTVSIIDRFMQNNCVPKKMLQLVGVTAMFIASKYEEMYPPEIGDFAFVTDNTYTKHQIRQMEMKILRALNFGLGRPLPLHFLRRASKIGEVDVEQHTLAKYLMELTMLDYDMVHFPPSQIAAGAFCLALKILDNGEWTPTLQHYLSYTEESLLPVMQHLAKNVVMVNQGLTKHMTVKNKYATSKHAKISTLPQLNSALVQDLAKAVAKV

IC50 (CDK1/cyclin B) | IC50 (CDK2/cyclin E) | SMILES | viability at 72 h, 100 µM [5, 6] | viability at 72 h, 100 µM [5, 7] | viability at 72 h, 100 µM [5, 8] | viability at 72 h, 100 µM [5, 9] | other results
25 µM | 24 µM | Nc1n[nH]c(N)c1/N=N/c1ccc(F)cc1 [Compound 3b, 3,5-diamino-4-(4-fluoro)phenylazo-pyrazole] |  |  |  |  | 
60 µM | 45 µM | Nc1n[nH]c(N)c1/N=N/c1ccc(Cl)cc1 [Compound 4b, 3,5-diamino-4-(4-chloro)phenylazo-pyrazole] |  |  |  |  | 
> 100 µM |  | Nc1n[nH]c(N)c1/N=N/c1ccc(Br)cc1 [Compound 5b, 3,5-diamino-4-(4-bromo)phenylazo-pyrazole] |  |  |  |  | 
> 100 µM |  | Nc1n[nH]c(N)c1/N=N/c1ccc(I)cc1 [Compound 6b, 3,5-diamino-4-(4-iodo)phenylazo-pyrazole] |  |  |  |  | 
2.6 µM | 6.1 µM | Nc1n[nH]c(N)c1N=Nc1ccccc1[N+](=O)[O-] [Compound 7b, 3,5-diamino-4-(2-nitro)phenylazo-pyrazole] | 58% | 57% | 48% | 62% | IC50 [1, 10]: > 100 µM; IC50 [2, 11]: 100 ± 10 µM; IC50 [3, 12]: > 100 µM; IC50 [4, 13]: > 100 µM
4.8 µM |  | Nc1n[nH]c(N)c1/N=N/c1cccc([N+](=O)[O-])c1 [Compound 8b, 3,5-diamino-4-(3-nitro)phenylazo-pyrazole] | 69% | 95% | 28% | 44% | IC50 [1, 10]: > 100 µM; IC50 [2, 11]: 79 ± 6 µM; IC50 [3, 12]: 65 ± 7 µM; IC50 [4, 13]: > 100 µM
3.6 µM |  | Nc1n[nH]c(N)c1/N=N/c1ccccc1O [Compound 10b, 3,5-diamino-4-(2-hydroxy)phenylazo-pyrazole] | 74% | 84% | 72% | 72% | IC50 [1, 10]: > 100 µM; IC50 [2, 11]: > 100 µM; IC50 [3, 12]: > 100 µM; IC50 [4, 13]: > 100 µM
6 µM |  | Nc1n[nH]c(N)c1/N=N/c1cccc(O)c1 [Compound 11b, 3,5-diamino-4-(3-hydroxy)phenylazo-pyrazole] | 70% | 83% | 53% | 71% | IC50 [1, 10]: > 100 µM; IC50 [2, 11]: > 100 µM; IC50 [3, 12]: > 100 µM; IC50 [4, 13]: > 100 µM
70 µM | 88 µM | Nc1n[nH]c(N)c1N=Nc1ccccc1C(=O)O [Compound 13b, 3,5-diamino-4-(2-carboxy)phenylazo-pyrazole] |  |  |  |  | 
34 µM | 27 µM | Nc1n[nH]c(N)c1N=Nc1cccc(C(=O)O)c1 [Compound 14b, 3,5-diamino-4-(3-carboxy)phenylazo-pyrazole] |  |  |  |  | 
> 100 µM | > 100 µM | CC(=O)NS(=O)(=O)c1ccc(N=Nc2c(N)n[nH]c2N)cc1 [Compound 18b, N-({4-[(3,5-diamino-pyrazol-4-yl)azo]phenyl}sulfonyl)-acetamide] |  |  |  |  | inhibition of the enzyme CDK2 (in words) (CDK2/cyclin E): failed to inhibit the enzyme
> 100 µM |  | N=C(N)NS(=O)(=O)c1ccc(N=Nc2c(N)n[nH]c2N)cc1 [Compound 19b, N-[amino(imino)methyl]-4-[(3,5-diamino-pyrazol-4-yl)azo]-benzansulfonamide] |  |  |  |  | 

SMILES | IC50 (CDK1/cyclin B) | IC50 (CDK2/cyclin E) | viability at 72 h, 100 µM [5, 6] | viability at 72 h, 100 µM [5, 7] | viability at 72 h, 100 µM [5, 8] | viability at 72 h, 100 µM [5, 9] | other results
Nc1n[nH]c(N)c1N=Nc1ccccc1 [Compound 1b, 3,5-diamino-4-(phenyl)azo-pyrazole] | 25 µM | 22 µM |  |  |  |  | IC50 ([1]; Calcein AM, triplicates): > 100 µM; % of viable cells HOS ([1]; at 100 μM): (83 ± 8%); IC50 ([2]; 72 h, Calcein AM, triplicates): > 100 µM; % of viable cells K562 ([2]; at 100 μM, 72 h): (90 ± 14%); IC50 ([3]; 72 h, Calcein AM, triplicates): > 100 µM; % of viable cells MCF7 ([3]; at 100 μM, 72 h): (74 ± 5%); IC50 ([4]; 72 h, Calcein AM, triplicates): > 100 µM; % of viable cells G361 ([4]; at 100 μM, 72 h): (75 ± 2%)
Nc1n[nH]c(N)c1/N=N/c1ccc([N+](=O)[O-])cc1 [Compound 9b, 3,5-diamino-4-(4-nitro)phenylazo-pyrazole] | 16 µM |  | 61% | 80% | 25% | 60% | IC50 ([1]; Homo sapiens): > 100 µM; IC50 ([2]; Homo sapiens, K562, 72 h): 71 ± 6 µM; IC50 ([3]; Homo sapiens, MCF7, 72 h): > 100 µM; IC50 ([4]; Homo sapiens, G-361, 72 h): > 100 µM
